Data from patent US20260198495A1, “BINARY INSECTICIDE COMPOSITION AND USE THEREOF” (SHENYANG SINOCHEM AGROCHEMICALS R & D CO., LTD., priority 2022, published 2026).
≈ marks a conversion by molar mass, not a printed value.

How the values were obtained:
Type in all cases: in vivo
[1] = tested on: Lipaphis erysimi (Kaltenbach); experiment: Joint toxicity of I-72 + pyrethrin, Example 47, Table 47; conditions: Lipaphis erysimi; A = compound I-72, B = pyrethrin; cabbage leaf spraying; 48 hours; read-out: LC50
Experimental: Test target: Lipaphis erysimi (Kaltenbach).
(§1) Preparation of the pesticide solution: according to different test requirements, the test samples were accurately weighed respectively with an electronic analytical balance. The technical pesticides were dissolved in acetone, and then diluted with 0.1% Tween 80 water into a series of pesticide solutions with a certain concentration gradient according to the experimental design dosage.
(§2) Experimental method: first, cabbage leaves with uniform and consistent Lipaphis erysimi (Kaltenbach) were selected, with about 30-40 insects on each leaf. Then, they were evenly sprayed with the pesticide solution in the order from low dosage to high dosage according to the experimental design, with 1.5 mL of the solution for each leaf and 3 replicates for each treatment. In addition, a blank control was set up.
(§3) The treated test materials were placed in an observation room, and the temperature, humidity and illumination of the observation room could be adjusted as needed. The number of dead and live insects was investigated 48 hours later. […] Then, the co-toxicity coefficient of each ratio was calculated using the Sun Y-P method to evaluate the mixing effect (the same as in Example 1).

[2] = tested on: 3rd-instar larvae of Yponomeuta evonymallus (Linnaeus); experiment: Joint toxicity of I-72 + thiamethoxam, Example 66, Table 66; conditions: A = compound I-72, B = thiamethoxam; leaf dipping; 72 hours
Experimental: Test target: 3rd-instar larvae of Yponomeuta evonymallus (Linnaeus).
as §1
(§4) Experimental method: first, Hylotelephium spectabile leaves were selected and dipped in the prepared pesticide solution for 10 s in the order from low dosage to high dosage according to the experimental design. After natural air-drying in the shade, they were placed in a 9-cm-diameter Petri dish with filter paper, and uniform and healthy test insects were introduced, with 10 insects for each treatment and 3 replicates for each treatment. In addition, a blank control was set up.
The treated test materials were placed in an observation room, and the temperature, humidity and illumination of the observation room could be adjusted as needed. The number of dead and live insects was investigated 72 hours later.

[3] = tested on: Myzus persicae (Sulzer) nymphs; experiment: Joint toxicity of I-72 + pymetrozine, Example 73, Table 73; conditions: A = compound I-72, B = pymetrozine, cabbage leaf spraying, 48 hours, read-out: LC50
Experimental: Test target: Myzus persicae (Sulzer) nymphs, a sensitive strain reared indoors.
as §1
as §2, with “Myzus persicae (Sulzer)” for “Lipaphis erysimi (Kaltenbach)”
as §3, with “effect,” for “effect (the same”, “1.” for “1).”

[4] = tested on: Aphis gossypii Glover nymphs; experiment: Joint toxicity of I-72 + nitenpyram, Example 67, Table 67; conditions: A = compound I-72, B = nitenpyram, cotton leaf spraying, 48 hours, read-out: LC50
Experimental: Test target: Aphis gossypii Glover nymphs, a sensitive strain reared indoors.
as §1
as §2, with “cotton” for “cabbage”, “Aphis gossypii” for “Lipaphis erysimi (Kaltenbach)”, “mL” for “mL of the solution”
as §3

[5] = tested on: adult Tetranychus cinnabarinus (Boisduval); experiment: Joint toxicity of I-72 + pyridaben, Example 84, Table 84; conditions: A = compound I72, B = pyridaben, potted-seedling spraying, 72 hours, read-out: LC50
Experimental: Test target: adult Tetranychus cinnabarinus (Boisduval), a sensitive strain reared indoors.
as §1
Experimental method: the activity of the mixture against the adult Tetranychus cinnabarinus (Boisduval) was determined by adopting the potted-seedling spraying method. First, the adult Tetranychus cinnabarinus of uniform size were transferred onto the leaves of kidney bean seedlings at the stage when the first pair of true leaves was fully expanded. After the adult mites had stabilized, the base number was counted. Then, the uniform spraying was performed with the pesticide solution in the order from low to high dose according to the experimental design, with 1.5 mL for each seedling and 3 replicates for each treatment. […]
as §3, with “needed.” for “needed. The number of dead and live insects was investigated 48 hours later.”, “effect,” for “effect (the same”, “1.” for “1).”

[6] = tested on: Unaspis yanonensis Kuwana nymphs; experiment: whole plant or invertebrate; conditions: foliar, A = compound I-72, B = spirotetramat, citrus leaf dipping, 120 hours, read-out: LC50
Experimental: Test target: Unaspis yanonensis Kuwana nymphs.
as §1
Experimental method: the activity of the mixture against Unaspis yanonensis Kuwana nymphs on citrus was determined by adopting the dipping method. First, the collected citrus leaves with Unaspis yanonensis Kuwana nymphs were treated with the pesticide solution in the order from low dosage to high dosage according to the experimental design. After air-drying, the petioles were kept moist with degreased cotton, and then the leaves were placed in a Petri dish, with 3 replicates for each treatment. In addition, a blank control was set up.
The treated test materials were placed in an observation room, and the temperature, humidity and illumination of the observation room could be adjusted as needed. The number of dead and live insects was investigated 120 hours later.

[7] = tested on: 2nd-instar larvae of Plutella xylostella; experiment: Joint toxicity of I-72 + tetraniliprole, Example 58, Table 58; conditions: Plutella xylostella, foliar; A = compound I-72, B = tetraniliprole; cabbage leaf dipping; 72 hours; read-out: LC50
Experimental: Test target: 2nd-instar larvae of Plutella xylostella.
as §1
as §4, with “cabbage” for “Hylotelephium spectabile”
as §3, with “72” for “48”

## CN(C(=O)c1ccc2c(c1)OC(F)(F)O2)c1cccc(C(=O)Nc2c(Br)cc(C(F)(C(F)(F)F)C(F)(F)F)cc2OC(F)F)c1F [Compound I-72]
[1]
  LC50: 10.4 µg/mL
[2]
  LC50: 4.5752 µg/mL
[3]
  LC50: 7.96 µg/mL
[4]
  LC50: 3 µg/mL
[5]
  LC50: 33.5 µg/mL
[6]
  LC50: 75.2 µg/mL (≈ 101 µM)
[7]
  LC50: 0.0888 µg/mL
